Values of other authors in patent US9085569B2, “1,2,4-oxadiazol derivatives, process for their preparation and use thereof as intermediates in the preparation of indolic alkaloids” (CONSIGLIO NAZIONALE DELLE RICERCHE, priority 2012, dated 2015).

Test system: HeLa cell line (uterine cervix cancer)
Conditions: background statement

Compound: N=C(N)NCCCCCNc1noc(Cc2c[nH]c3ccccc23)n1 [phidianidine B]
- cytotoxic activity: high cytotoxic activity
